In the supplement of paper PMC10307832:

Experiments:
Assay in all cases: relative viability (nuclei count vs DMSO), 5 days (fraction); higher = more cells survive
[1] = compound: C[C@@]1(C(=O)Nc2ccc(F)nc2)CCCN1c1nc(Nc2cc(C3CC3)n[nH]2)c2cccn2n1 + COc1cc2c(Oc3ccc(NC(=O)C4(C(=O)Nc5ccc(F)cc5)CC4)cc3F)ccnc2cc1OCCCN1CCOCC1 [Foretinib] (partner 0.25 µM)
Method in brief: (§1)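 Relative viability is defined as nuclei in treated wells over nuclei in vehicle wells. Duplicate plates were run and medians reported. Lung cancer cell lines in 1536-well plates were dosed by pin tool one day after seeding, with one drug or with a fixed anchor-drug dose plus five library-drug doses (not always all listed) in √10 steps, and nuclei were counted after 5 days.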

Motesanib + Dasatinib = compound: CC1(C)CNc2cc(NC(=O)c3cccnc3NCc3ccncc3)ccc21 [Motesanib] + Cc1nc(Nc2ncc(C(=O)Nc3c(C)cccc3Cl)s2)cc(N2CCN(CCO)CC2)n1 [Dasatinib] (partner 0.075 µM)
Method in brief: as §1

Motesanib + Bortezomib = compound: CC1(C)CNc2cc(NC(=O)c3cccnc3NCc3ccncc3)ccc21 [Motesanib] + CC(C)C[C@H](NC(=O)[C@H](Cc1ccccc1)NC(=O)c1cnccn1)B(O)O [Bortezomib] (partner 0.002 µM)
Method in brief: as §1

[2] = compound: C[C@@]1(C(=O)Nc2ccc(F)nc2)CCCN1c1nc(Nc2cc(C3CC3)n[nH]2)c2cccn2n1 + CC(=O)Nc1cccc(-n2c(=O)n(C3CC3)c(=O)c3c(Nc4ccc(I)cc4F)n(C)c(=O)c(C)c32)c1 [Trametinib] (partner 0.02 µM)
Method in brief: as §1

Row | Cell Line | relative viability ([1]; first compound 0.04 µM) | relative viability ([1]; first compound 0.1265 µM) | relative viability ([1]; first compound 0.4 µM) | relative viability ([1]; first compound 1.265 µM) | relative viability (Motesanib + Dasatinib; first compound 0.01 µM) | relative viability (Motesanib + Dasatinib; first compound 0.03162 µM) | relative viability (Motesanib + Dasatinib; first compound 0.1 µM) | relative viability (Motesanib + Dasatinib; first compound 0.3162 µM) | relative viability (Motesanib + Dasatinib; first compound 1 µM) | relative viability (Motesanib + Bortezomib; first compound 0.01 µM) | relative viability (Motesanib + Bortezomib; first compound 0.03162 µM) | relative viability (Motesanib + Bortezomib; first compound 0.1 µM) | relative viability (Motesanib + Bortezomib; first compound 0.3162 µM) | relative viability (Motesanib + Bortezomib; first compound 1 µM) | relative viability ([2]; first compound 0.04 µM) | relative viability ([2]; first compound 0.1265 µM) | relative viability ([2]; first compound 0.4 µM) | relative viability ([2]; first compound 1.265 µM)
1 | COR-L 105 | 0.887 | 0.993 | 0.828 | 1.01 | 0.407 | 0.243 | 0.308 | 0.401 | 0.394 | 0.873 | 1.01 | 0.939 | 1.02 | 0.785 | 0.44 | 0.42 | 0.439 | 0.399
2 | RERF-LC-KJ | 0.815 | 0.777 | 0.659 | 0.714 | 0.92 | 0.803 | 0.806 | 0.811 | 0.839 | 1.01 | 1.13 | 1.09 | 1.09 | 1.03 | 0.84 | 0.665 | 0.639 | 0.685
3 | LXF-289 | 0.949 | 0.945 | 0.937 | 0.991 | 0.258 | 0.148 | 0.257 | 0.256 | 0.267 | 0.985 | 0.976 | 1.03 | 1.13 | 1.03 | 0.67 | 0.619 | 0.645 | 0.717
4 | PC-14 | 1.04 | 0.888 | 0.813 | 0.93 | 0.288 | 0.286 | 0.256 | 0.298 | 0.319 | 0.87 | 0.975 | 0.95 | 0.81 | 1.06 | 0.765 | 0.649 | 0.696 | 0.687
5 | NCI-H650 | 1.02 | 0.738 | 0.819 | 0.782 | 0.399 |  | 0.442 | 0.501 | 0.444 | 0.805 | 0.954 | 0.83 | 1.02 | 0.647 | 0.867 | 0.572 | 0.743 | 0.611
6 | NCI-H1666 | 0.925 | 0.909 | 0.778 | 0.784 | 0.783 | 0.747 | 0.89 | 0.797 | 0.802 | 0.845 | 0.766 | 0.816 | 0.77 | 0.862 | 0.826 | 0.688 | 0.697 | 0.755
7 | NCI-H2085 | 0.989 | 0.736 | 0.73 | 0.675 | 0.286 | 0.204 | 0.225 | 0.252 | 0.23 | 1.14 | 1.12 | 0.977 | 1.09 | 1.14 | 0.929 | 0.471 | 0.58 | 0.636
8 | NCI-H1734 | 0.603 | 0.494 | 0.336 | 0.408 | 0.515 | 0.448 |  | 0.463 | 0.405 | 1 | 0.929 | 1.01 | 0.918 | 1.09 | 0.527 | 0.512 | 0.403 | 0.563
9 | NCI-H2126 | 0.885 | 0.661 | 0.485 | 0.865 | 0.598 | 0.541 | 0.597 | 0.545 | 0.635 | 1.07 | 1.17 | 1.11 | 1.17 | 1.12 | 0.447 | 0.346 | 0.336 | 0.415
10 | EMC-BAC-2 | 0.849 | 0.721 | 0.327 | 0.574 | 0.292 | 0.34 | 0.342 | 0.339 | 0.303 | 1.03 | 1.01 | 1.02 | 1.07 | 1.08 | 0.801 | 0.533 | 0.443 | 0.558
11 | NCI-H1993 | 0.659 | 0.67 | 0.532 | 0.555 | 0.629 | 0.509 | 0.639 | 0.63 | 0.588 | 1.09 | 1.06 | 1.08 | 1.28 | 1.06 | 0.468 | 0.42 | 0.534 | 0.46
12 | NCI-H520 | 1.01 | 0.612 | 0.796 | 0.768 | 0.208 | 0.196 | 0.21 | 0.226 | 0.218 | 0.482 | 0.747 | 0.432 | 0.653 | 0.693 | 0.753 | 0.571 | 0.523 | 0.591
13 | NCI-H647 | 1.18 | 1.08 | 0.886 | 1.17 | 0.194 | 0.169 | 0.151 | 0.191 | 0.221 | 0.984 | 1.01 | 0.974 | 1.06 | 0.883 | 0.465 | 0.419 | 0.383 | 0.397
14 | SK-LU-1 | 0.782 | 0.546 | 0.602 | 0.575 | 0.189 | 0.189 | 0.183 | 0.198 | 0.209 | 1.11 | 1.48 | 1.3 | 1.38 | 1.58 | 0.45 | 0.413 | 0.421 | 0.469
15 | ChaGo-K-1 | 0.831 | 0.829 | 0.828 | 0.888 | 0.55 | 0.535 | 0.544 | 0.696 | 0.691 |  | 0.666 | 0.841 | 0.976 | 1.11 | 0.827 | 0.869 | 0.81 | 0.823
16 | NCI-H1650 | 1.53 | 1.16 | 0.984 | 1.08 | 0.374 | 0.337 | 0.33 | 0.329 | 0.298 | 0.204 |  | 0.191 | 0.185 | 0.207 | 0.672 | 0.5 | 0.51 | 0.572
17 | NCI-H2009 | 1.23 | 1.25 | 1.1 | 1.14 | 0.286 | 0.245 | 0.304 | 0.314 | 0.346 | 1.07 | 1.05 | 1.05 | 1.2 | 1 | 0.297 | 0.314 | 0.235 | 0.243
18 | LOU-NH91 | 0.938 | 0.94 | 0.86 | 0.948 | 0.515 | 0.536 | 0.621 | 0.594 | 0.586 | 0.468 | 0.507 | 0.486 | 0.52 | 0.581 | 0.737 | 0.845 | 0.709 | 0.755
